Measurements from PubChem BioAssay (NCI).
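Five concentrations, 48 hours, 96-well plates. GI50: concentration for 50% inhibition of growth. TGI is the concentration that stops growth completely.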

Experiments:
Experiment in all cases: NCI-60 cell line screen, 48 h
[1] = test system: 786-0 renal
[2] = test system: A498 renal
[3] = test system: A549 NSCLC
[4] = test system: ACHN renal
[5] = test system: BT-549 breast
[6] = test system: CAKI-1 renal
[7] = test system: CCRF-CEM leukemia
[8] = test system: COLO 205 colon
[9] = test system: DU-145 prostate
[10] = test system: EKVX NSCLC
[11] = test system: HCC-2998 colon
[12] = test system: HCT-116 colon
[13] = test system: HCT-15 colon
[14] = test system: HL-60(TB) leukemia
[15] = test system: HOP-62 NSCLC
[16] = test system: HOP-92 NSCLC
[17] = test system: HS 578T breast
[18] = test system: HT29 colon
[19] = test system: IGROV1 ovarian
[20] = test system: K-562 leukemia
[21] = test system: KM12 colon
[22] = test system: LOX IMVI melanoma
[23] = test system: M14 melanoma
[24] = test system: MCF7 breast
[25] = test system: MDA-MB-231 breast
[26] = test system: MDA-MB-435
[27] = test system: MOLT-4 leukemia
[28] = test system: NCI-H226 lung
[29] = test system: NCI-H23 lung
[30] = test system: NCI-H460 lung
[31] = test system: NCI-H522 lung
[32] = test system: NCI/ADR-RES ovarian
[33] = test system: OVCAR-3 ovarian
[34] = test system: OVCAR-4 ovarian
[35] = test system: OVCAR-5 ovarian
[36] = test system: OVCAR-8 ovarian
[37] = test system: PC-3 prostate
[38] = test system: RPMI-8226 leukemia
[39] = test system: RXF 393 renal
[40] = test system: SF-268 CNS
[41] = test system: SF-295 CNS
[42] = test system: SK-MEL-2 melanoma
[43] = test system: SK-MEL-28 melanoma
[44] = test system: SK-MEL-5 melanoma
[45] = test system: SN12C renal
[46] = test system: SNB-19 CNS
[47] = test system: SNB-75 CNS
[48] = test system: SR leukemia
[49] = test system: SW-620 colon
[50] = test system: TK-10 renal
[51] = test system: U251 CNS
[52] = test system: UACC-257 melanoma
[53] = test system: UACC-62 melanoma
[54] = test system: UO-31 renal

Compound: Cc1cc(C)c(-c2cc(O)c(-c3c(C)cc(C)cc3C)cc2O)c(C)c1
- GI50 [1]: 6.49 µM
- TGI [1]: > 100 µM
- GI50 [2]: 2.58 µM
- TGI [2]: > 100 µM
- GI50 [3]: 4.6 µM
- TGI [3]: > 100 µM
- GI50 [4]: 7.43 µM
- TGI [4]: > 100 µM
- GI50 [5]: 6.39 µM
- TGI [5]: > 100 µM
- GI50 [6]: 4.23 µM
- TGI [6]: > 100 µM
- GI50 [7]: 4.1 µM
- TGI [7]: > 100 µM
- GI50 [8]: 2.27 µM
- TGI [8]: 5.68 µM
- GI50 [9]: 3.35 µM
- TGI [9]: 15.2 µM
- GI50 [10]: 5.83 µM
- TGI [10]: > 100 µM
- GI50 [11]: 2.9 µM
- TGI [11]: > 100 µM
- GI50 [12]: 3.51 µM
- TGI [12]: > 100 µM
- GI50 [13]: 3.73 µM
- TGI [13]: > 100 µM
- GI50 [14]: 3.21 µM
- TGI [14]: > 100 µM
- GI50 [15]: 4.55 µM
- TGI [15]: > 100 µM
- GI50 [16]: 37.2 µM
- TGI [16]: > 100 µM
- GI50 [17]: 3.29 µM
- TGI [17]: > 100 µM
- GI50 [18]: 3.18 µM
- TGI [18]: 65.1 µM
- GI50 [19]: 4.18 µM
- TGI [19]: > 100 µM
- GI50 [20]: 2.91 µM
- TGI [20]: > 100 µM
- GI50 [21]: 2.19 µM
- TGI [21]: > 100 µM
- GI50 [22]: 4.39 µM
- TGI [22]: > 100 µM
- GI50 [23]: 2.77 µM
- TGI [23]: > 100 µM
- GI50 [24]: 2.46 µM
- TGI [24]: > 100 µM
- GI50 [25]: 3.29 µM
- TGI [25]: 11.3 µM
- GI50 [26]: 0.482 µM
- TGI [26]: > 100 µM
- GI50 [27]: 6.93 µM
- TGI [27]: > 100 µM
- GI50 [28]: 38.7 µM
- TGI [28]: > 100 µM
- GI50 [29]: 4.05 µM
- TGI [29]: > 100 µM
- GI50 [30]: 3.45 µM
- TGI [30]: > 100 µM
- GI50 [31]: 1.74 µM
- TGI [31]: 4.46 µM
- GI50 [32]: 4.33 µM
- TGI [32]: > 100 µM
- GI50 [33]: 2.05 µM
- TGI [33]: 4.85 µM
- GI50 [34]: 7.6 µM
- TGI [34]: > 100 µM
- GI50 [35]: 11.3 µM
- TGI [35]: > 100 µM
- GI50 [36]: 5.37 µM
- TGI [36]: > 100 µM
- GI50 [37]: 4.44 µM
- TGI [37]: > 100 µM
- GI50 [38]: 5.82 µM
- TGI [38]: > 100 µM
- GI50 [39]: 2.77 µM
- TGI [39]: > 100 µM
- GI50 [40]: 5.83 µM
- TGI [40]: > 100 µM
- GI50 [41]: 2.68 µM
- TGI [41]: > 100 µM
- GI50 [42]: 4.55 µM
- TGI [42]: > 100 µM
- GI50 [43]: 8.14 µM
- TGI [43]: > 100 µM
- GI50 [44]: 1.61 µM
- TGI [44]: 31.2 µM
- GI50 [45]: 5.52 µM
- TGI [45]: > 100 µM
- GI50 [46]: 3.58 µM
- TGI [46]: > 100 µM
- GI50 [47]: 2.87 µM
- TGI [47]: > 100 µM
- GI50 [48]: 2.43 µM
- TGI [48]: > 100 µM
- GI50 [49]: 3.17 µM
- TGI [49]: > 100 µM
- GI50 [50]: > 100 µM
- TGI [50]: > 100 µM
- GI50 [51]: 4.22 µM
- TGI [51]: > 100 µM
- GI50 [52]: > 100 µM
- TGI [52]: > 100 µM
- GI50 [53]: 3.18 µM
- TGI [53]: > 100 µM
- GI50 [54]: 9.7 µM
- TGI [54]: > 100 µM
